Source: US6642256B2, “Piperidine derivatives as subtype selective N-Methyl-D-Aspartate antagonists” (Warner-Lambert Company LLC, priority 2000, dated 2003)
Where two headings read alike, the source gives them in different places.

Legend:
[1] = target: T1, NR1A/NR2B NMDA receptor subtype (Rattus norvegicus, UniProt P35439+Q00960); test: [3H]Ifenprodil binding assay (IFPNR), rat forebrain membranes
T1 construct: buffy coat membrane fraction was prepared from frozen adult rat forebrains; tissue Zivic-Miller Laboratories, Inc; host or cells: adult rat forebrain membranes
T1 sequence (Q00960 27-1482, other chains not shown): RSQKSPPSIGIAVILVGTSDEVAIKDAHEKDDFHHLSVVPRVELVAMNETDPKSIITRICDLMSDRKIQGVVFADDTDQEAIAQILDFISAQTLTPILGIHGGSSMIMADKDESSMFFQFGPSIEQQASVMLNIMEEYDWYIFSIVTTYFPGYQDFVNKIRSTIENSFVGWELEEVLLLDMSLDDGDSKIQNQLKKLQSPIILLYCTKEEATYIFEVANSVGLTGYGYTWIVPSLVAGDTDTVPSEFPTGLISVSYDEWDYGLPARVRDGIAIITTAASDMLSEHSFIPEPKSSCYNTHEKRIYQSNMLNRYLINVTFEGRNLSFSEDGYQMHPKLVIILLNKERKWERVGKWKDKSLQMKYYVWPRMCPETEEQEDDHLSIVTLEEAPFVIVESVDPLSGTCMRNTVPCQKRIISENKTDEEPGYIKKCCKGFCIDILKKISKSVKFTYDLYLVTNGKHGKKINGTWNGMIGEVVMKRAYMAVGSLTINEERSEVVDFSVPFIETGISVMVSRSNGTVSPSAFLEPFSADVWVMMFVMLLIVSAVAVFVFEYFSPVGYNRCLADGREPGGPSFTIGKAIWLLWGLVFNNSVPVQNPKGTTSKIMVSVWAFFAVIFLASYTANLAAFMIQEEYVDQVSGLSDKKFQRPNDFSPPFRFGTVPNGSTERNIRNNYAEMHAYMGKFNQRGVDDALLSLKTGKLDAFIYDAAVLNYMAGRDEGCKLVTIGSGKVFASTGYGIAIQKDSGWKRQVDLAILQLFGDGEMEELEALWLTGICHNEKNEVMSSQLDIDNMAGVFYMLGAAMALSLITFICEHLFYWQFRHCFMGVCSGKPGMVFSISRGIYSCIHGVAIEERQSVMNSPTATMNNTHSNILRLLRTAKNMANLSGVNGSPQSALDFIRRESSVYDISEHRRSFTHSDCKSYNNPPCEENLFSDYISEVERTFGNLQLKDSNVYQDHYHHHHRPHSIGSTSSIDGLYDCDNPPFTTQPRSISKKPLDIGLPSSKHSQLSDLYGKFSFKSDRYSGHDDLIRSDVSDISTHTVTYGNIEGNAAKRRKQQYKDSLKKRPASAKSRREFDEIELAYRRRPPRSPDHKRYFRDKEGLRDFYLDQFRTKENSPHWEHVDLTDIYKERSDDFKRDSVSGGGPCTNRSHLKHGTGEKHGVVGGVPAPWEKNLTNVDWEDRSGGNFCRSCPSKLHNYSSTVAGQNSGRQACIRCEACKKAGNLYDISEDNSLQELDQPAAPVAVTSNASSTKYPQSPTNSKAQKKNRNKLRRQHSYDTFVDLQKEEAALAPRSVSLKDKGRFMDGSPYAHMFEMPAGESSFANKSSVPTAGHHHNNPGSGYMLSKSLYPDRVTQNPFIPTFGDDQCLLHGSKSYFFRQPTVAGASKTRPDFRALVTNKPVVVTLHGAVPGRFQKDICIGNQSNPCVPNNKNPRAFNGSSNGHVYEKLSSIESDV
Experimental: b. [^3H]Ifenprodil Binding Assay (IFPNR) Protocol:
Ifenprodil, [phenyl-^3H]-(specific activity, 66.2 Ci/mmol) was purchased from Dupont NEN Research Products (Boston, Mass.). Ifenprodil tartrate was purchased from Research Biochemicals International (Natick, Mass.). HEPES, glutamate and glycine were purchased from Sigma Chemical Co. (St. Louis, Mo.).
All buffers and reagents used in assay incubations or to dissolve drugs were prepared using water purified through a Milli-Q reverse osmosis system (Millipore Corp., Bedford, Mass.) and treated with UV emissions. Prior to use in the assays buffers were further filtered through a sterile Coming filtration unit (Coming Glass Works, Coming, N.Y.) containing a 0.2 micron filter. Buffer used to rinse the membranes on the assay filters was prepared with purified water, but was not refiltered and was stored no longer than 5 days. Stock solutions of the drugs (usually 10 mM) were dissolved in 20 mM HEPES-KOH buffer pH 7.4 (assay buffer) with the addition of 1 to 5 μL of glacial AcOH, if needed to keep them in solution. Eliprodil was used as the reference NMDA antagonist. A stock solution of eliprodil was prepared, and was buffered with the addition of 10% DMSO. All subsequent dilutions from the stock solution were made in buffer.
An extensively washed buffy coat membrane fraction was prepared from frozen adult rat forebrains (Zivic-Miller Laboratories, Inc., Zelienople, Pa.) as described by Coughenour L. L.; Cordon, J. J., J. Pharmacol. Exp. Ther., 1997;280:584-592, and stored at −80° C. On the day of the assay, pellets of the frozen membrane fractions were resuspended in 35 mL of assay buffer at pH 7.4 using a POLYTRON (Kinematica A. G. Company, Littau, Switzerland) mixer at setting 6. After incubation at 37° C. for 30 minutes in a shaking water bath, the homogenate was centrifuged 40,000×g for 10 minutes at 4° C. The pellets were resuspended in fresh buffer and centrifuged 3 more times before final suspension for use in the assay.
(iii) [^3H]Ifenprodil Binding protocol:
Triplicate incubations were carried out in a volume of 0.5 mL in 1.3 mL polypropylene tubes (Marsh Biomedical Products Inc, Rochester, N.Y.) for 2 hours at room temperature. Incubations contained invention compounds, membranes (100-200 μg protein) and 4 nM [^3H]-ifenprodil in 20 mM HEPES-KOH buffer, pH 7.4 (assay buffer). Assays were started by addition of the membranes. Bound radioligand was separated by filtration under reduced pressure using a TOMTEC Mach II, 96-well cell harvester (Tomtec Inc, Orange, Conn.). Filtration was through Whatman GF/B glass fiber filters (Whatman Ltd., Maidstone, England), which had been soaked for at least 15 minutes in 0.3% polyethylenimine and allowed to air dry. The filters were rinsed with 3 mL of ice cold assay buffer within 6 seconds. Air was allowed to pass through the filters for an additional 10 seconds to remove residual moisture. The filter mat was supported on a cold (−20° C.) TEFLON (E. I. Du Pont de Nemours and Company, Wilmington, Del.) coated support, and filters from individual wells were separated and placed in Mini Poly-Q vials (Becklman Instruments Inc, Fullerton, Calif.) and filled with 4 mL of scintillation cocktail (Beckman Ready Protein^+). Radioactivity retained on the filter was determined by liquid scintillation spectrophotometry. Nonspecific binding was defined as the binding in the presence of […] ifenprodil. Ninety percent of the total binding of ifenprodil was specific binding at the NR1A/NR2B NMDA receptor subtype active site (as opposed to binding at a remote site).
Binding curves were statistically analyzed for a best 1- or 2-site competition fit using GRAPHPAD PRISM software (GraphPad Software Inc, San Diego, Calif.), a computer program used to analyze and graph scientific data. The normalized data was fitted by nonweighted nonlinear regression to either [formula]
Control data was entered as 100%, and no parameters were constrained. […]

[2] = tested on: Male Wistar albino rats; test: Formalin footpad test (FT); type: in vivo, rat; details: PO, statistically significant decrease in late-phase pain behaviour versus vehicle
Experimental: a. The Formalin Footpad Test (FT):
The FT model was used to test invention compounds for pain alleviating properties. The model produces a biphasic response in a test animal that results from a change in pain intensity over time. The FT model utilizes an injection of dilute formalin into the hindpaw of a rodent, which produces high intensity acute pain behaviors which are measured for the first 10 minutes post formalin injection (early phase responding). High intensity acute pain behaviors include rapid licking or biting of the injected hindpaw. The second phase is a prolonged period of lower intensity pain behaviors (late phase responding) which are measured from 11 to 45 minutes post-formalin injection.
Male Wistar albino rats (Harlan Sprague-Dawley Labs), weighing approximately 100 g at the time of testing, were used. Animals were group-housed and acclimated to the housing facility for 1 week prior to testing. Animals were maintained on a 12-hour/12-hour light/dark cycle and fed block rodent chow. From 4 to 8 animals were randomly assigned to either a vehicle-only dose group or a vehicle-plus invention compound treatment group on the day of testing.
The testing apparatus was a 16″×8″ box divided into two 8″×8″ testing chambers. Each testing chamber comprised a floor and 3 walls made of clear plastic mirrors, and a fourth wall which was clear plastic that allowed observation of animal behavior. The top of each chamber was covered with a metal screen during testing to prevent animals from climbing out of the chamber. Two animals were tested simultaneously in the adjoining boxes, but animals were unable to observe one another.
Animals were weighed and placed into holding cages (2 animals per cage) in the testing room prior to dosing. Following approximately 30 minutes of acclimation to the testing room, each pair of animals was administered orally (PO) by gavage a mixture of invention compound plus vehicle or vehicle alone. The treated animals were then placed in individual test chambers and allowed to acclimate to the chambers for at least 20 minutes. Then 50 μL of a 2.5% solution of formalin in vehicle was injected subcutaneously (SC) in the plantar surface of the left hindpaw from 30 to 120 minutes after administration of the invention compound. A session timer was started following the formalin injection, and the amount of time the animal spent licking or biting the injected paw was clocked with a hand-held stopwatch. The cumulative time spent engaging in a pain response was manually recorded at 5-minute intervals for 45 minutes post formalin injection. Early phase responding included Minutes 0 to 10, and late phase responding included Minutes 11 to 45. At the end of the testing period, animals were sacrificed using carbon dioxide. […]

[3] = Table 4, 4 nM [3H]-ifenprodil, read-out: IFPNR IC50
[4] = Table 2, 4 nM [3H]-ifenprodil, read-out: IFPNR IC50 μm
[5] = Table 3, 4 nM [3H]-ifenprodil, read-out: IFPNR IC50

**Q.** With `CC(O)(c1ccc(F)cc1)C1CCN(CC2CC(c3ccc4[nH]c(=O)oc4c3)=NO2)CC1` (stereo not shown) [Example 32, 6-(5-{4-[1-(4-Fluorophenyl)-1-hydroxyethyl]piperidin-1-ylmethyl}-4,5-dihydroisoxazol-3-yl)-3H-benzoxazol-2-one] as the molecule, how does the melting point read?
**A.** Its melting point is 125 to 134 °C.

**Q.** And the IC50 [1, 3]?
**A.** The IC50 was > 1 µM.

**Q.** With `O=c1[nH]c2ccc(C3=NOC(CN4CCC(Sc5ccc(F)cc5)CC4)C3)cc2o1` (stereo not shown) [Example 28, 6-{5-[4-(4-Fluorophenylsulfanyl)piperidin-1-ylmethyl]-4,5-dihydroisoxazol-3-yl}-3H-benzoxazol-2-one] as the molecule, how does the melting point read?
**A.** The melting point was 190 to 192 °C.

**Q.** What about the IC50 [1, 3] of the same molecule?
**A.** The IC50 was 0.018 µM.

**Q.** With `Cc1c(C2=NOC(CN3CCC(Cc4ccc(F)cc4)CC3)C2)cc2oc(=O)[nH]c2c1Cl` (stereo not shown) [Example 33, 4-Chloro-6-{5-[4-(4-fluorobenzyl)piperidin-1-ylmethyl]-4,5-dihydroisoxazol-3-yl}-5-methyl-3H-benzoxazol-2-one] as the molecule, how does the melting point read?
**A.** The melting point was 131 to 132 °C.

**Q.** And the IC50 ([1]; Table 5, 4 nM [3H]-ifenprodil, read-out: IFPNR IC50)?
**A.** Its IC50 is 0.014 µM.

**Q.** What does the source list for `O=C(O)C1(CN2CCC(Cc3ccc(F)cc3)CC2)CC(c2ccc3[nH]c(=O)oc3c2)=NO1` (stereo not shown) [Example 22, 5-[4-(4-Fluorobenzyl)piperidin-1-ylmethyl]-3-(2-oxo-2,3-dihydrobenzoxazol-6-yl)-4,5-dihydroisoxazole-5-carboxylic acid]?
**A.** melting point: 188 to 194 °C; IC50 [1, 4]: 0.788 µM

**Q.** For `O=c1[nH]c2ccc(-c3cc(CN4CCC(Cc5ccc(F)cc5)CC4)on3)cc2o1` [Example 15, 6-{5-[4-(4-Fluorobenzyl)piperidin-1-ylmethyl]isoxazol-3-yl}-3H-benzoxazol-2-one], which melting point is on record?
**A.** Its melting point is 237 to 244 °C.

**Q.** And the IC50 [1, 4]?
**A.** The IC50 was 0.499 µM.

**Q.** With `O=c1[nH]c2ccc(C3CC(CN4CCC(Cc5ccc(F)cc5)CC4)=NO3)cc2o1` (stereo not shown) [Example 5, 6-{3-[4-(4-Fluorobenzyl)piperidin-1-ylmethyl]-4,5-dihydroisoxazol-5-yl}-3H-benzoxazol-2-one] as the molecule, how does the “FT (mg/kg), active dose” value ([2]; Table 2) read?
**A.** The value was >30 mg/kg.

**Q.** And the IC50 [1, 4]?
**A.** The IC50 was 0.047 µM.

**Q.** Which melting point does the source give for `O=c1[nH]c2ccc(C3=NOC(CN4CCC(Oc5ccc(F)cc5)CC4)C3)cc2o1` (stereo not shown) [Example 27, 6-{5-[4-(4-Fluorophenoxy)piperidin-1-ylmethyl]-4,5-dihydroisoxazol-3-yl}-3-H-benzoxazol-2-one] here?
**A.** Its melting point is 192 to 194 °C.

**Q.** What about the IC50 [1, 3] of the same molecule?
**A.** Its IC50 is 0.059 µM.

**Q.** Which melting point does the source give for `O=c1[nH]c2ccc(C3=NOC(CN4CCC(O)(c5ccccc5)CC4)C3)cc2o1` (stereo not shown) [Example 35] here?
**A.** Its melting point is 115 to 118 °C.

**Q.** And the IC50 [1, 5]?
**A.** Its IC50 is > 1 µM.

**Q.** Which melting point does the source give for `O=c1[nH]c2ccc(C3=NOC(CCN4CCC(c5ccc(F)cc5)CC4)C3)cc2o1` (stereo not shown) [Example 36, 6-(5-{2-[4-(4-Fluorophenyl)piperidin-1-yl]ethyl}-4,5-dihydroisoxazol-3-yl)-3H-benzoxazol-2-one] here?
**A.** Its melting point is 188 to 194 °C.

**Q.** And the IC50 [1, 5]?
**A.** Its IC50 is > 1 µM.

**Q.** With `O=c1[nH]c2ccc(C3=NOC(CN4CCC(c5ccc(F)cc5)CC4)C3)cc2o1` (stereo not shown) [Example 34, -{5-[4-(4-Fluorophenyl)piperidin-1-ylmethyl]-4,5-dihydroisoxazol-3-yl}-3H-benzoxazol-2-one] as the molecule, how does the melting point read?
**A.** Its melting point is 214 to 217 °C.

**Q.** And the IC50 [1, 5]?
**A.** The IC50 was 0.28 µM.

**Q.** Which melting point does the source give for `CC1(CN2CCC(Cc3ccc(F)cc3)CC2)CC(c2ccc3[nH]c(=O)oc3c2)=NO1` (stereo not shown) [Example 21, 6-{5-[4-(4-Fluorobenzyl)piperidin-1-ylmethyl]-5-methyl-4,5-dihydroisoxazol-3-yl}-3H-benzoxazol-2-one] here?
**A.** Its melting point is 82 to 86 °C.

**Q.** And the IC50 [1, 4]?
**A.** Its IC50 is 0.011 µM.

**Q.** Which melting point does the source give for `O=C(C1CC(c2ccc3[nH]c(=O)oc3c2)=NO1)N1CCC(Cc2ccc(F)cc2)CC1` (stereo not shown) [Example 18, 6-{5-[4-(4-Fluorobenzyl)piperidine-1-carbonyl]-4,5-dihydroisoxazol-3-yl}-3H-benzoxazol-2-one] here?
**A.** Its melting point is 210 to 213 °C.

**Q.** What about the IC50 [1, 5] of the same molecule?
**A.** Its IC50 is > 1 µM.

**Q.** For `O=C(c1ccc(F)cc1)C1CCN(CC2CC(c3ccc4[nH]c(=O)oc4c3)=NO2)CC1` (stereo not shown) [Example 30, 6-{5-[4-(4-Fluorobenzoyl)piperidin-1-ylmethyl]-4,5-dihydroisoxazol-3-yl}-3H-benzoxazol-2-one], which melting point is on record?
**A.** The melting point was 188 to 190 °C.

**Q.** What about the IC50 [1, 3] of the same molecule?
**A.** Its IC50 is 0.759 µM.

**Q.** Which results are given for `O=c1[nH]c2ccc(C3=NOC(CN4CCC(Cc5ccc(F)cc5)CC4)C3)cc2o1` (single isomer, unassigned; (+)) [Example 4a, (+)-6-{5-[4-(4-fluorobenzyl)piperidin-1-ylmethyl]-4,5-dihydroisoxazol-3-yl}-3H-benzoxazol-2-one]?
**A.** FT (mg/kg), active dose ([2]; Table 1): <10 mg/kg; IC50 ([1]; Table 1, 4 nM [3H]-ifenprodil, read-out: IFPNR (IC50 μM)): 0.016 µM
